According to patent US11229636B2, “Substituted tetrahydroquinolinone compounds as ROR gamma modulators” (Aurigene Discovery Technologies Limited, priority 2015, dated 2022):

The compounds below were run against ROR gamma ligand binding domain (Homo sapiens (Human), UniProt P51449) (assay: ROR gamma luciferase reporter assay (GAL4-ROR gamma LBD, HEK293 cells)). Conditions: 48 hours treatment, read-out: RORγ luciferase Reporter assay: IC50 (nM) (in range).
Assay type: cell-based
Description: The Ligand Binding Domain (LBD) of ROR gamma was cloned into pFN26A (BIND) hRluc-neo Flexi vector (Promega) which expresses a fusion protein comprised of a DNA binding domain of the yeast GAL4 gene, a linker segment and ROR gamma ligand binding domain. For the reporter assay 0.02×10^6 HEK293 cells were seeded per well in a 96 well plate in complete media and incubated overnight in an incubator with 5% CO2 at 37° C. before transfection. Cells were then co-transfected with pFN26A hRluc-neo Flexi vector containing the LBD of ROR gamma and pGL4.35 [luc2P/9XGAL4 UAS/Hygro] Vector (Promega) in low serum media. Post transfection and recovery, cells were treated with the test compounds for 48 hours. The assay was terminated using the Bright-Glo Luciferase assay system from Promega and the Luminescence was measured using a luminescence reader. The luminescence values were used to calculate the potency of the compounds.

Chain of ROR gamma ligand binding domain (P51449 269-508): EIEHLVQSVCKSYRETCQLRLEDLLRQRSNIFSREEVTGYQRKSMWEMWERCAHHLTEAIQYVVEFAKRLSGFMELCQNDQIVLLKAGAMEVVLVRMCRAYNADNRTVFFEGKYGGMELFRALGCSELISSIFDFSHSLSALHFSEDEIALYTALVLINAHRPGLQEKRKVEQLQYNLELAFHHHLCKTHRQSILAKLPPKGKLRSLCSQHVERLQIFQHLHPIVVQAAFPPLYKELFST

Structure (SMILES)	IC50 [nM]
CCS(=O)(=O)c1ccc(CC(=O)Nc2ccc3c(n2)CCC(C)(c2cc(C)nc(OC)n2)C3=O)cc1 (stereo not drawn) [Compound 64, 2-(4-(ethylsulfonyl)phenyl)-N-(6-(2-methoxy-6-methylpyrimidin-4-yl)-6-methyl-5-oxo-5,6,7,8-tetrahydroquinolin-2-yl)acetamide]	< 100
CCS(=O)(=O)c1ccc(CC(=O)Nc2ccc3c(n2)CCC(C)(c2cc(OC)nc(C)n2)C3=O)cc1 (stereo not drawn) [Compound 65, 2-(4-(ethylsulfonyl)phenyl)-N-(6-(6-methoxy-2-methylpyrimidin-4-yl)-6-methyl-5-oxo-5,6,7,8-tetrahydroquinolin-2-yl)acetamide]	< 100
CCS(=O)(=O)c1ccc(CC(=O)Nc2ccc3c(n2)CCC(C)(c2nccn4c(F)c(C)nc24)C3=O)cc1 (stereo not drawn) [Compound 66, 2-(4-(ethylsulfonyl)phenyl)-N-(6-(3-fluoro-2-methylimidazo[1,2-a]pyrazin-8-yl)-6-methyl-5-oxo-5,6,7,8-tetrahydroquinolin-2-yl)acetamide]	< 100
CCS(=O)(=O)c1ccc(CC(=O)Nc2ccc3c(n2)CCC(C)(c2cc(C(F)(F)F)nc(C)n2)C3=O)cc1 (stereo not drawn) [Compound 67, 2-(4-(ethylsulfonyl)phenyl)-N-(6-methyl-6-(2-methyl-6-(trifluoromethyl)-pyrimidin-4-yl)-5-oxo-5,6,7,8-tetrahydroquinolin-2-yl)acetamide]	> 500
CCS(=O)(=O)c1ccc(CC(=O)Nc2ccc3c(n2)CCC(C)(c2ncc(C)n4ccnc24)C3=O)cc1 (stereo not drawn) [Compound 68, 2-(4-(ethylsulfonyl)phenyl)-N-(6-methyl-6-(5-methylimidazo[1,2-a]pyrazin-8-yl)-5-oxo-5,6,7,8-tetrahydroquinolin-2-yl)acetamide]	100 to 500
CCS(=O)(=O)c1ccc(CC(=O)Nc2cc(C)c3c(n2)CCC(C)(c2ccc(=O)n(C)n2)C3=O)cc1 (stereo not drawn) [Compound 70, N-(4,6-dimethyl-6-(1-methyl-6-oxo-1,6-dihydropyridazin-3-yl)-5-oxo-5,6,7,8-tetrahydroquinolin-2-yl)-2-(4-(ethylsulfonyl)phenyl)acetamide]	> 500
CCS(=O)(=O)c1ccc(CC(=O)Nc2ccc3c(n2)CCC(C)(c2nccn4c(C5CC5)cnc24)C3=O)cc1 (stereo not drawn) [Compound 71, N-(6-(3-cyclopropylimidazo[1,2-a]pyrazin-8-yl)-6-methyl-5-oxo-5,6,7,8-tetrahydroquinolin-2-yl)-2-(4-(ethylsulfonyl)phenyl)acetamide]	100 to 500
CCS(=O)(=O)c1ccc(CC(=O)Nc2ccc3c(n2)CCC(C)(c2nccn4cc(C(F)(F)F)nc24)C3=O)cc1 (stereo not drawn) [Compound 72, 2-(4-(ethylsulfonyl)phenyl)-N-(6-methyl-5-oxo-6-(2-(trifluoromethyl)-imidazo[1,2-a]pyrazin-8-yl)-5,6,7,8-tetrahydroquinolin-2-yl)acetamide]	< 100
CCS(=O)(=O)c1ccc(CC(=O)Nc2cc(C)c3c(n2)CCC(C)(c2cc(OC)cnn2)C3=O)cc1 (stereo not drawn) [Compound 73, 2-(4-(ethylsulfonyl)phenyl)-N-(6-(5-methoxypyridazin-3-yl)-4,6-dimethyl-5-oxo-5,6,7,8-tetrahydroquinolin-2-yl)acetamide]	> 500
CCS(=O)(=O)c1ccc(CC(=O)Nc2ccc3c(n2)CCC(C)(c2nccn4c(C(F)(F)F)cnc24)C3=O)cc1 (stereo not drawn) [Compound 74, 2-(4-(ethylsulfonyl)phenyl)-N-(6-methyl-5-oxo-6-(3-(trifluoromethyl)-imidazo[1,2-a]pyrazin-8-yl)-5,6,7,8-tetrahydroquinolin-2-yl)acetamide]	< 100
CCS(=O)(=O)c1ccc(CC(=O)Nc2cc(C)c3c(n2)CCC(C)(c2ccc4nc(C)cn4n2)C3=O)cc1 (stereo not drawn) [Compound 75, N-(4,6-dimethyl-6-(2-methylimidazo[1,2-b]pyridazin-6-yl)-5-oxo-5,6,7,8-tetrahydroquinolin-2-yl)-2-(4-(ethylsulfonyl)phenyl)acetamide]	100 to 500
CCS(=O)(=O)c1ccc(CC(=O)Nc2cc(C)c3c(n2)CCC(C)(c2cc(C4CC4)c(OC)nn2)C3=O)cc1 (stereo not drawn) [Compound 76, N-(6-(5-cyclopropyl-6-methoxypyridazin-3-yl)-4,6-dimethyl-5-oxo-5,6,7,8-tetrahydroquinolin-2-yl)-2-(4-(ethylsulfonyl)phenyl)acetamide]	100 to 500
CCS(=O)(=O)c1ccc(CC(=O)Nc2cc(C)c3c(n2)CCC(C)(c2ccc4nccn4n2)C3=O)cc1 (stereo not drawn) [Compound 77, 2-(4-(ethylsulfonyl)phenyl)-N-(6-(imidazo[1,2-b]pyridazin-6-yl)-4,6-dimethyl-5-oxo-5,6,7,8-tetrahydroquinolin-2-yl)acetamide]	100 to 500
CCS(=O)(=O)c1ccc(CC(=O)Nc2ccc3c(n2)CCC(C)(c2cc(C)nc(C(F)(F)F)n2)C3=O)cc1 (stereo not drawn) [Compound 78, 2-(4-(ethylsulfonyl)phenyl)-N-(6-methyl-6-(6-methyl-2-(trifluoromethyl)-pyrimidin-4-yl)-5-oxo-5,6,7,8-tetrahydroquinolin-2-yl)acetamide]	100 to 500
CCS(=O)(=O)c1ccc(CC(=O)Nc2ccc3c(n2)CC(C)C(C)(c2cc(C)nc(C)n2)C3=O)cc1 (stereo not drawn) [Compound 81, N-(6-(2,6-dimethylpyrimidin-4-yl)-6,7-dimethyl-5-oxo-5,6,7,8-tetrahydroquinolin-2-yl)-2-(4-(ethylsulfonyl)phenyl)acetamide]	< 100
CCS(=O)(=O)c1ccc(CC(=O)Nc2ccc3c(n2)CC(C)C(c2cc(C)nc(C)n2)C3=O)cc1 (stereo not drawn) [Compound 82, N-(6-(2,6-dimethylpyrimidin-4-yl)-7-methyl-5-oxo-5,6,7,8-tetrahydroquinolin-2-yl)-2-(4-(ethylsulfonyl)phenyl)acetamide]	> 500
CCS(=O)(=O)c1ccc(CC(=O)Nc2cc3c(cn2)C(=O)C(C)(c2cc(C)nc(C)n2)CC3)cc1 (stereo not drawn) [Compound 83, N-(7-(2,6-dimethylpyrimidin-4-yl)-7-methyl-8-oxo-5,6,7,8-tetrahydroisoquinolin-3-yl)-2-(4-(ethylsulfonyl)phenyl)acetamide]	100 to 500
CCS(=O)(=O)c1ccc(CC(=O)Nc2ccc3c(n2)CCC(C)(c2ccc(Cl)nn2)C3=O)cc1 (stereo not drawn) [Compound 93, N-(6-(6-chloropyridazin-3-yl)-6-methyl-5-oxo-5,6,7,8-tetrahydroquinolin-2-yl)-2-(4-(ethylsulfonyl)phenyl)acetamide]	> 500
CCS(=O)(=O)c1ccc(CC(=O)Nc2cc(C)c3c(n2)CCC(C)(c2ccc(OC)[n+]([O-])n2)C3=O)cc1 (stereo not drawn) [Compound 94, 3-(2-(2-(4-(ethylsulfonyl)phenyl)acetamido)-4,6-dimethyl-5-oxo-5,6,7,8-tetrahydroquinolin-6-yl)-6-methoxypyridazine 1-oxide]	> 500
CCS(=O)(=O)c1ccc(CC(=O)Nc2cc(C)c3c(n2)CCC(C)(c2nnc(OC)cc2C)C3=O)cc1 (stereo not drawn) [Compound 95, 2-(4-(ethylsulfonyl)phenyl)-N-(6-(6-methoxy-4-methylpyridazin-3-yl)-4,6-dimethyl-5-oxo-5,6,7,8-tetrahydroquinolin-2-yl)acetamide]	> 500
CCS(=O)(=O)c1ccc(CC(=O)Nc2cc(C)c3c(n2)CCC(C)(c2cc(C)c(OC)nn2)C3=O)cc1 (stereo not drawn) [Compound 96, 2-(4-(ethylsulfonyl)phenyl)-N-(6-(6-methoxy-5-methylpyridazin-3-yl)-4,6-dimethyl-5-oxo-5,6,7,8-tetrahydroquinolin-2-yl)acetamide]	100 to 500
CCS(=O)(=O)c1ccc(CC(=O)Nc2ccc3c(n2)CCC(C)(c2nccn4c(F)cnc24)C3=O)cc1 (stereo not drawn) [Compound 97, 2-(4-(ethylsulfonyl)phenyl)-N-(6-(3-fluoroimidazo[1,2-a]pyrazin-8-yl)-6-methyl-5-oxo-5,6,7,8-tetrahydroquinolin-2-yl)acetamide]	> 500
CCS(=O)(=O)c1ccc(CC(=O)Nc2cc(C)c3c(n2)CCC(C)(c2ccc(N(C)C)nn2)C3=O)cc1 (stereo not drawn) [Compound 98, N-(6-(6-(dimethylamino)pyridazin-3-yl)-4,6-dimethyl-5-oxo-5,6,7,8-tetrahydroquinolin-2-yl)-2-(4-(ethylsulfonyl)phenyl)acetamide]	100 to 500
CCS(=O)(=O)c1ccc(CNC(=O)c2cc3c(cn2)C(=O)C(C)(c2cc(C)nc(C)n2)CC3)cc1 (stereo not drawn) [Compound-134, 7-(2,6-dimethylpyrimidin-4-yl)-N-(4-(ethylsulfonyl)benzyl)-7-methyl-8-oxo-5,6,7,8-tetrahydroisoquinoline-3-carboxamide]	100 to 500
